Laboratory results reported in the supplement of paper PMC11061612.

Key:
[1] = test system: COR-L95 (Small Cell Lung Carcinoma); assay: Bliss excess, mean over the matrix (fraction); higher = more synergy
In short: (§1)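 Cell lines in DMEM/F12 or RPMI with 10% FBS were plated in 1536-well plates, held 24 hours at 37°C, 5% CO2, then given two-drug dose matrices for 72 hours (DMSO typically 0.2%). Viability was read by CellTiter-Glo 2.0 luminescence and scaled as inhibition from 0 (vehicle wells) to 1 (blank wells). Combination Emax is the second-highest inhibition in the matrix; Bliss excess is observed combination effect minus expected EA + EB − EA·EB, EA and EB being single-agent effects.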

[2] = test system: CTV-1 (T-Lymphoblastic Leukemia); assay: as above
In short: as §1

[3] = test system: DMS-273 (Small Cell Lung Carcinoma); assay: as above
In short: as §1

[4] = test system: NCI-H1299 (Non-Small Cell Lung Carcinoma); assay: as above
In short: as §1

[5] = test system: NCI-H1781 (Lung Adenocarcinoma); assay: as above
In short: as §1

[6] = test system: NCI-H1793 (Lung Adenocarcinoma); assay: as above
In short: as §1

NCI-H2369 (Mesothelioma) = assay: as above
In short: as §1

[7] = test system: OCI-AML2 (Acute Myeloid Leukemia); assay: as above
In short: as §1

SN12C (Kidney Carcinoma) = assay: as above
In short: as §1

[8] = test system: COR-L95 (Small Cell Lung Carcinoma); assay: combination Emax (second highest fraction inhibited in the dose matrix, 72 h); higher = more inhibition; extreme values may be limits of the assay
In short: as §1

[9] = test system: DMS-273 (Small Cell Lung Carcinoma); assay: as above
In short: as §1

[10] = test system: G-292-Clone-A141B1 (Osteosarcoma); assay: as above
In short: as §1

[11] = test system: HPAC (Pancreatic Carcinoma); assay: as above
In short: as §1

IGR-1 (Melanoma) = assay: as above
In short: as §1

[12] = test system: IHH-4 (Thyroid Gland Carcinoma); assay: as above
In short: as §1

[13] = test system: NALM-6 (B-Lymphoblastic Leukemia); assay: as above
In short: as §1

[14] = test system: NCI-H1781 (Lung Adenocarcinoma); assay: as above
In short: as §1

NCI-H2595 (Mesothelioma) = assay: as above
In short: as §1

[15] = test system: OCI-AML2 (Acute Myeloid Leukemia); assay: as above
In short: as §1

[16] = test system: TGBC24TKB (Biliary Tract Carcinoma); assay: as above
In short: as §1
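Wherever Bliss excess, mean over the matrix is given: after 72 h of two-drug dosing.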

| Structure (SMILES) | Bliss excess [1] | Bliss excess [2] | Bliss excess [3] | Bliss excess [4] | Bliss excess [5] | Bliss excess [6] | Bliss excess (NCI-H2369 (Mesothelioma)) | Bliss excess [7] | Bliss excess (SN12C (Kidney Carcinoma)) | combination Emax [8] | combination Emax [9] | combination Emax [10] | combination Emax [11] | combination Emax (IGR-1 (Melanoma)) | combination Emax [12] | combination Emax [13] | combination Emax [14] | combination Emax (NCI-H2595 (Mesothelioma)) | combination Emax [15] | combination Emax [16] |
| --- | --- | --- | --- | --- | --- | --- | --- | --- | --- | --- | --- | --- | --- | --- | --- | --- | --- | --- | --- | --- |
| COc1nnc2ccc(N3CCC(c4ccc(OCCN5CCN(C)C(=O)[C@H]5C)cc4)CC3)nn12 [AZD5153] + C[C@@H]1COCCN1C2=NC(=NC(=C2)C3(CC3)[S@](=N)(=O)C)C4=C5C=CNC5=NC=C4 [AZD6738] (first compound max 1 µM, 7x7, partner max 10 µM) | -0.0357 | 0.0194 | 0.0044 | -0.0088 | 0.0033 | 0.0127 | 0.0409 | -0.0143 | -0.0091 | 0.547 | 0.883 | 0.458 | 0.71 | 0.728 | 0.772 | 0.958 | 0.491 | 0.461 | 1 | 0.855 |
| COc1nnc2ccc(N3CCC(c4ccc(OCCN5CCN(C)C(=O)[C@H]5C)cc4)CC3)nn12 [AZD5153] + Cc1c2c(nn1C)CSCc1cc(n(C)n1)CSc1cc(c3ccccc3c1)OCCCc1c(C(=O)O)n(C)c3c-2c(Cl)ccc13 [AZD5991] (first compound max 1 µM, 7x7, partner max 1 µM) | -0.0167 | -0.0515 | -0.1 | -0.0313 | 0.0028 | -0.0484 | -0.0499 | -0.0185 | -0.0285 | 0.371 | 0.994 | 0.387 | 0.628 | 0.752 | 0.544 | 0.904 | 0.435 | 0.602 | 1 | 0.848 |
| COc1nnc2ccc(N3CCC(c4ccc(OCCN5CCN(C)C(=O)[C@H]5C)cc4)CC3)nn12 [AZD5153] + Cn1cnc2c(F)c(Nc3ccc(Br)cc3Cl)c(C(=O)NOCCO)cc21 [Selumetinib] (first compound max 1 µM, 7x7, partner max 10 µM) | -0.0561 | 0.0009 | -0.0661 | -0.0243 | -0.0085 | 0.0212 | -0.048 | 0.0311 | 0.0158 | 0.218 | 0.71 | 0.317 | 0.82 | 0.938 | 0.662 | 0.886 | 0.327 | 0.364 | 1 | 0.893 |
| Cc1c2c(nn1C)CSCc1cc(n(C)n1)CSc1cc(c3ccccc3c1)OCCCc1c(C(=O)O)n(C)c3c-2c(Cl)ccc13 [AZD5991] + C=CCn1c(=O)c2cnc(Nc3ccc(N4CCN(C)CC4)cc3)nc2n1-c1cccc(C(C)(C)O)n1 [AZD1775] (first compound max 1 µM, partner max 1 µM) | -0.0637 | 0.0316 | -0.0476 | -0.0048 | -0.054 | -0.0329 | 0.0049 | -0.0366 | 0.0306 | 0.757 | 0.987 | 0.262 | 0.857 | 0.63 | 0.684 | 0.878 | 0.65 | 0.282 | 1 | 0.672 |
| Cc1c2c(nn1C)CSCc1cc(n(C)n1)CSc1cc(c3ccccc3c1)OCCCc1c(C(=O)O)n(C)c3c-2c(Cl)ccc13 [AZD5991] + CC1(C)CCC(CN2CCN(c3ccc(C(=O)NS(=O)(=O)c4ccc(NCC5CCOCC5)c([N+](=O)[O-])c4)c(Oc4cnc5[nH]ccc5c4)c3)CC2)=C(c2ccc(Cl)cc2)C1 [Venetoclax] (first compound max 1 µM, 7x7, partner max 1 µM) | 0.0616 | -0.0011 | -0.0099 | -0.031 | -0.0597 | -0.0081 | -0.0027 | 0.143 | -0.0193 | 0.914 | 0.964 | 0.184 | 0.244 | 0.969 | 0.253 | 0.949 | 0.432 | 0.267 | 1 | 0.304 |
| Cc1c2c(nn1C)CSCc1cc(n(C)n1)CSc1cc(c3ccccc3c1)OCCCc1c(C(=O)O)n(C)c3c-2c(Cl)ccc13 [AZD5991] + CCN(CCO)CCCOc1ccc2c(Nc3cc(CC(=O)Nc4cccc(F)c4)[nH]n3)ncnc2c1 [AZD2811] (first compound max 1 µM, 7x7, partner max 1 µM) | 0.0028 | 0.0556 | -0.0949 | -0.0012 | -0.0155 | -0.0255 | -0.0156 | 0.126 | 0.0191 | 0.449 | 0.993 | 0.276 | 0.623 | 0.338 | 0.404 | 0.655 | 0.875 | 0.324 | 1 | 0.543 |
| Cc1c2c(nn1C)CSCc1cc(n(C)n1)CSc1cc(c3ccccc3c1)OCCCc1c(C(=O)O)n(C)c3c-2c(Cl)ccc13 [AZD5991] + CN(C)CCCOc1ccc(-c2ccc3ncc4c(c3c2)n(C2CCOCC2)c(=O)n4C)cn1 [AZD0156] (first compound max 1 µM, 7x7, partner max 1 µM) | -0.0328 | 0.0012 | 0.0401 | 0.0163 | -0.0155 | 0.0332 | 0.0002 | -0.0647 | -0.0161 | 0.378 | 0.976 | 0.332 | 0.586 | 0.327 | 0.265 | 0.408 | 0.665 | 0.328 | 0.961 | 0.165 |
| Cc1c2c(nn1C)CSCc1cc(n(C)n1)CSc1cc(c3ccccc3c1)OCCCc1c(C(=O)O)n(C)c3c-2c(Cl)ccc13 [AZD5991] + C[C@@H]1COCCN1C2=NC(=NC(=C2)C3(CC3)[S@](=N)(=O)C)C4=C5C=CNC5=NC=C4 [AZD6738] (first compound max 1 µM, 7x7, partner max 10 µM) | 0.0482 | 0.0021 | 0.0196 | 0.0159 | 0.0103 | 0.0097 | 0.0442 | 0.0168 | -0.0144 | 0.638 | 0.98 | 0.281 | 0.683 | 0.852 | 0.709 | 0.895 | 0.752 | 0.299 | 1 | 0.672 |
| Cc1c2c(nn1C)CSCc1cc(n(C)n1)CSc1cc(c3ccccc3c1)OCCCc1c(C(=O)O)n(C)c3c-2c(Cl)ccc13 [AZD5991] + C[C@@H](Nc1cc(F)cc(F)c1)c1cc(C(=O)N(C)C)cc2c(=O)cc(N3CCOCC3)oc12 [AZD8186] (first compound max 1 µM, 7x7, partner max 3 µM) | -0.0012 | -0.0144 | -0.0094 | -0.0181 | 0.0182 | -0.0254 | -0.004 | -0.0721 | -0.0725 | 0.346 | 0.956 | 0.415 | 0.378 | 0.28 | 0.234 | 0.672 | 0.584 | 0.336 | 0.946 | 0.249 |
| Cc1c2c(nn1C)CSCc1cc(n(C)n1)CSc1cc(c3ccccc3c1)OCCCc1c(C(=O)O)n(C)c3c-2c(Cl)ccc13 [AZD5991] + Cc1cc2ncnn2cc1Nc1ncc2c(n1)n(C1CCOCC1)c(=O)n2C [AZD7648] (first compound max 1 µM, 7x7, partner max 10 µM) | -0.0957 | -0.0169 | -0.0113 | -0.0436 | -0.105 | -0.0112 | 0.0018 | 0.019 | -0.0335 | 0.315 | 0.988 | 0.267 | 0.254 | 0.237 | 0.35 | 0.471 | 0.515 | 0.291 | 0.967 | 0.243 |
| Cc1c2c(nn1C)CSCc1cc(n(C)n1)CSc1cc(c3ccccc3c1)OCCCc1c(C(=O)O)n(C)c3c-2c(Cl)ccc13 [AZD5991] + Cn1cnc2c(F)c(Nc3ccc(Br)cc3Cl)c(C(=O)NOCCO)cc21 [Selumetinib] (first compound max 1 µM, 7x7, partner max 3 µM) | -0.039 | 0.036 | -0.0137 | -0.0039 | -0.0165 | 0.0133 | 0.0081 | 0.0107 | -0.0425 | 0.306 | 0.987 | 0.221 | 0.673 | 0.622 | 0.385 | 0.369 | 0.492 | 0.283 | 1 | 0.418 |
| C[C@@H]1COCCN1c1cc(C2([S@](C)(=N)=O)CC2)nc(-c2ccnc3[nH]ccc23)n1 [AZD6738] + O=C(c1cc(Cc2n[nH]c(=O)c3ccccc23)ccc1F)N1CCN(C(=O)C2CC2)CC1 [Olaparib] (first compound max 10 µM, 7x7, partner max 10 µM) | -0.0399 | 0.043 | -0.0473 | -0.0365 | -0.0218 | -0.0153 | -0.0344 | 0.0013 | -0.0284 | 0.517 | 0.721 | 0.283 | 0.416 | 0.452 | 0.773 | 0.976 | 0.59 | 0.214 | 0.988 | 0.693 |
